Results: ChEMBL document CHEMBL1149238, “A novel mixed-ligand antimycobacterial dimeric copper complex of ciprofloxacin and phenanthroline” (2004)

Test system: Mycolicibacterium smegmatis
Test: Antimycobacterial activity was determined against Mycobacterium smegmatis
Assay type: functional

With O=C(O)c1cn(C2CC2)c2cc(N3CCNCC3)c(F)cc2c1=O [CIPROFLOXACIN] as the molecule, how does the Log of inhibitory zone read?
Its Log of inhibitory zone is 1.28 log mm.
